Experimental data taken from US20250205185A1 (COSMED PHARMACEUTICAL CO., LTD., priority 2022, published 2025).

Assay: Microscope observation of taurine crystals (Test Example 1)
Assay type: physicochemical
Conditions: observed with a microscope; for Maximum particle size (length) μm: length = major axis; for Maximum particle size (thickness) μm: thickness = minor axis

Crystalline form | Maximum particle size (length) μm [μm] | Maximum particle size (thickness) μm [μm] | SMILES
Needle- | 720 | 25 | NCCS(=O)(=O)O [Example 10, taurine]
Needle- | 250 | 25 | NCCS(=O)(=O)O [Example 6, taurine]
Needle- | 250 | 20 | NCCS(=O)(=O)O [Example 7, taurine]
Needle- | 150 | 40 | NCCS(=O)(=O)O [Example 9, taurine]
Massive | 6740 | 1680 | NCCS(=O)(=O)O [Comparative Example 3, taurine, reference compound]

The remaining lines, values behind:

SMILES | Crystalline form | Maximum particle size (length) μm [μm] | Maximum particle size (thickness) μm [μm]
NCCS(=O)(=O)O [Comparative Example 1, taurine] | Massive | 700 | 160
NCCS(=O)(=O)O [Example 8, taurine] | Needle- | 220 | 30
NCCS(=O)(=O)O [Example 2, taurine] | Columnar | 150 | 80
NCCS(=O)(=O)O [Example 1, taurine] | Columnar | 280 | 145
NCCS(=O)(=O)O [Example 5, taurine] | Needle- | 800 | 55
NCCS(=O)(=O)O [Example 4, taurine] | Columnar | 100 | 70
NCCS(=O)(=O)O [Comparative Example 2, taurine] | Massive | 2000 | 300
NCCS(=O)(=O)O [Example 11, taurine] | Needle- | 370 | 20
NCCS(=O)(=O)O [Example 3, taurine] | Columnar | 150 | 100
